Experimental findings from ChEMBL document CHEMBL3120112, “Novel bronchodilatory quinazolines and quinoxalines: synthesis and biological evaluation” (Eur J Med Chem, 2014) are described below.

Structures are written as SMILES. The source made the active and inactive calls. The rule behind the calls is not given here.

Series [1] in a line: Bronchodilatory activity in Wistar rat trachea assessed as inhibition of carbacol-induced contraction. Type of series: functional. Particulars: read-out: ED50 (the source's name).
The species named for series [2] is Rattus norvegicus. Put plainly: Antagonist activity at rat trachea muscarinic acetylcholine receptor assessed as inhibition of carbachol-induced contraction preincubated for 10 mins followed by agonist challenge.
For the next series, the species on record is Cavia porcellus. Put plainly: Agonist activity at guinea pig trachea beta adrenergic receptor assessed as relaxation effect in presence of propranolol.
Series [3] concerns Mus musculus. In words: Toxicity in ICR mouse assessed as change in testicle weight at 54 mg/kg, po qd for 7 days measured every day for 7 days (0.118 +/- 0.004 g). Type of series: organism-based. Also noted: dose 54 mg/kg, route oral. As to conditions: in vivo, 168 h.
The test system of series [4] is Mus musculus. In words: Toxicity in ICR mouse assessed as change in kidney weight at 54 mg/kg, po qd for 7 days measured every day for 7 days (0.248 +/- 0.026 g). Type of series: organism-based. Also noted: dose 54 mg/kg, route oral. Particulars: in vivo, 168 h.
Series [5] has as its system Mus musculus. In words: Toxicity in ICR mouse assessed as change in liver weight at 54 mg/kg, po qd for 7 days measured every day for 7 days (1.772 +/- 0.120 g). The series is classed as organism-based. Details: dose 54 mg/kg, route oral. As to conditions: in vivo, 168 h.
Series [6] concerns Mus musculus. Put plainly: Toxicity in ICR mouse assessed as change in heart weight at 36 mg/kg, po qd for 7 days measured every day for 7 days (0.155 +/- 0.002 g). Details: dose 36 mg/kg, route oral. The series is classed as organism-based. Particulars: in vivo, 168 h.
The subject of series [7] is Mus musculus. In words: Toxicity in ICR mouse assessed as change in spleen weight at 36 mg/kg, po qd for 7 days measured every day for 7 days (0.143 +/- 0.033 g). The series is classed as organism-based. Also noted: dose 36 mg/kg, route oral. Particulars: in vivo, 168 h.
In series [8] the test system is Mus musculus. In words: Toxicity in ICR mouse assessed as change in testicle weight at 18 mg/kg, po qd for 7 days measured every day for 7 days (0.118 +/- 0.004 g). Type of series: organism-based. Also noted: dose 18 mg/kg, route oral. As to conditions: in vivo, 168 h.
Series [9] concerns Mus musculus. In words: Toxicity in ICR mouse assessed as change in liver weight at 36 mg/kg, po qd for 7 days measured every day for 7 days (1.772 +/- 0.120 g). Type of series: organism-based. Details: dose 36 mg/kg, route oral. As to conditions: in vivo, 168 h.
Series [10] has as its system Mus musculus. In words: Toxicity in ICR mouse assessed as change in kidney weight at 18 mg/kg, po qd for 7 days measured every day for 7 days (0.248 +/- 0.026 g). The series is classed as organism-based. Details: dose 18 mg/kg, route oral. As to conditions: in vivo, 168 h.
The test system of series [11] is Mus musculus. Put plainly: Toxicity in ICR mouse assessed as change in testicle weight at 36 mg/kg, po qd for 7 days measured every day for 7 days (0.118 +/- 0.004 g). Type of series: organism-based. Details: dose 36 mg/kg, route oral. Particulars: in vivo, 168 h.
In series [12] the test system is Mus musculus. Put plainly: Toxicity in ICR mouse assessed as change in liver weight at 18 mg/kg, po qd for 7 days measured every day for 7 days (1.772 +/- 0.120 g). As to conditions: in vivo, 168 h. Details: dose 18 mg/kg, route oral. The series is classed as organism-based.
Series [13] is described as follows: Acute toxicity in ip dosed ICR mouse. Type of series: organism-based. Particulars: in vivo.
The test system of series [14] is Mus musculus. In words: Toxicity in ICR mouse assessed as change in heart weight at 54 mg/kg, po qd for 7 days measured every day for 7 days (0.155 +/- 0.002 g). The series is classed as organism-based. Also noted: dose 54 mg/kg, route oral. As to conditions: in vivo, 168 h.
The test system of series [15] is Mus musculus. In words: Toxicity in ICR mouse assessed as change in spleen weight at 54 mg/kg, po qd for 7 days measured every day for 7 days (0.143 +/- 0.033 g). The series is classed as organism-based. Particulars: in vivo, 168 h. Details: dose 54 mg/kg, route oral.
Series [16] deals with Mus musculus. Put plainly: Toxicity in ICR mouse assessed as change in heart weight at 18 mg/kg, po qd for 7 days measured every day for 7 days (0.155 +/- 0.002 g). Type of series: organism-based. As to conditions: in vivo, 168 h. Also noted: dose 18 mg/kg, route oral.
Series [17] deals with Mus musculus. In words: Toxicity in ICR mouse assessed as change in kidney weight at 36 mg/kg, po qd for 7 days measured every day for 7 days (0.248 +/- 0.026 g). Type of series: organism-based. Also noted: dose 36 mg/kg, route oral. Particulars: in vivo, 168 h.
The subject of series [18] is Mus musculus. In words: Toxicity in ICR mouse assessed as change in spleen weight at 18 mg/kg, po qd for 7 days measured every day for 7 days (0.143 +/- 0.033 g). Type of series: organism-based. Details: dose 18 mg/kg, route oral. As to conditions: in vivo, 168 h.
For a further series, the system named is Trachea. Put plainly: Potency index, ratio of theophylline ED50 to compound ED50 for bronchodilatory activity in Wistar rat trachea. Type of series: functional.
The species named for series [19] is Rattus norvegicus. As to conditions: Wistar, Trachea.
The subject of series [20] is Mus musculus. In words: Toxicity in ICR mouse assessed as change in body weight at 18 to 54 mg/kg, po qd for 7 days measured every day for 7 days. The series is classed as organism-based. Details: dose 18-54 mg/kg, route oral. Particulars: in vivo, 168 h.
For series [21], the system named is Mus musculus. Put plainly: Toxicity in ICR mouse assessed as mortality at 18 to 54 mg/kg, po qd for 7 days measured every day for 7 days. As to conditions: in vivo, 168 h. Also noted: dose 18-54 mg/kg, route oral. The series is classed as organism-based.
Series [22] can be described thus: Bronchodilatory activity in guinea pig trachea assessed as inhibition of contraction. Type of series: functional, tissue-based.

`O=c1c2ccccc2[n+]([O-])cn1CCCN1CCCCC1`: the EC50 in [1] came out at 45.3 µM.
Same read-out and setting: as for `c1ccc2c(SCCCN3CCCCC3)ccnc2c1`, the figure is 58.7 µM.
Same read-out and setting: next, `O=c1c2ccccc2ncn1CCN1CCCC1`: 562 µM; `CN(C)CCSc1ncnc2ccccc12`: 65.3 µM; `c1ccc2c(OCCCN3CCCCC3)ncnc2c1`: 132 µM.
Still for that read-out and setting: next, `Cn1cnc2ccccc2c1=O`: 747 µM.
As to `c1ccc2c(SCCCN3CCCCC3)ncnc2c1` [listing 1 of 2 here], the result in the series listed under Rattus norvegicus [2] and in the series listed under Cavia porcellus was Active.
`c1ccc2c(OCCN3CCCCC3)ncnc2c1`: in series [1], the EC50 came to 301 µM.
Same read-out and setting: next, `O=c1cnc2ccccc2n1CCCN1CCCCC1`: 43 µM; `CN(C)CCOc1ncnc2ccccc12`: 162 µM.
Same read-out and setting: as for `O=c1[nH]cnc2ccccc12` [QUINAZOLINONE], the figure is 810 µM; as for `O=c1ccn(CCCN2CCCCC2)c2ccccc12`, 946 µM.
The same measure, in the same setting: next, `CN1CCCC1CCSc1ncnc2ccccc12` (centres undefined): 76.6 µM.
With `Cl.c1ccc2c(SCCCN3CCCCC3)ncnc2c1`, the Activity worked out at 0.115 g with Mus musculus [3]; 0.242 g with Mus musculus [4]; 1.64 g in the series with Mus musculus [5]; 0.154 g with Mus musculus [6]; 0.147 g with Mus musculus [7]; 0.122 g with Mus musculus [8]. The Activity stood at 1.679 g with Mus musculus [9]; 0.24 g in the series with Mus musculus [10]; 0.116 g in the series on Mus musculus [11]; 1.762 g with Mus musculus [12]; 0.144 g with Mus musculus [14]; 0.131 g in the series on Mus musculus [15]. The results for the Activity with Mus musculus [16], in the series with Mus musculus [17] and in the series with Mus musculus [18] were 0.146 g, 0.238 g and 0.134 g, respectively. Also, the LD50 in [13] stood at 89.1 mg/kg.
As for `O=c1c2ccccc2ncn1CCCN1CCCCC1`, in the series on Trachea, the “Ratio ED50” value stood at 100. In addition, the EC50 in series [1] came to 28.3 µM.
With `O=c1c2ccccc2ncn1CCN1CCOCC1`, in series [1], the EC50 turned out to be 1900 µM.
In the case of `O=C(O)Cn1cnc2ccccc2c1=O`, the ED50 result in the series filed under Rattus norvegicus [19] is “inactive”.
As to `O=c1c2ccccc2nc2n1CC[C@@H]2O`, in series [1], the EC50 is 2860 µM.
Consider `c1ccc2c(SCCCN3CCCCC3)ncnc2c1` [listing 2 of 2 here], for which the Activity result with Mus musculus [20] and with Mus musculus [21] was “Non-toxic” each time. In [1], the EC50 came to 3.42 µM.
For the molecule `c1ccc2c(NCCN3CCOCC3)ncnc2c1`, the EC50 in series [1] turned out to be 258 µM.
Consider `Cl.O=c1c2ccccc2ncn1CCCN1CCCCC1`, for which the LD50 in [13] came out at 162 mg/kg.
Take `O=c1c2ccccc2ncn1CCC[N+]1([O-])CCCCC1`: the EC50 in [1] was found to be 601 µM.
`O=c1c2ccccc2ncn1CCN1CCCCC1`: the EC50 in series [1] was 178 µM.
Same read-out and setting: next, `CN1CCCC1CCn1cnc2ccccc2c1=O` (centres undefined): 104 µM.
On to `COc1cc2nc3n(c(=O)c2cc1OC)CCCCC3`, for which, in series [22], the EC50 worked out at 73 µM.
As to `Cl.c1ccc2nc(SCCCN3CCCCC3)cnc2c1`, the outcome in the series listed under Rattus norvegicus [2] and in the series filed under Cavia porcellus was Active. Further, the EC50 in [1] was determined as 3.26 µM. Further, in series [13], the LD50 worked out at 104 mg/kg.
Turning to `O=c1ccn(CCCN2CCCCC2)cc1`, the EC50 in series [1] is 4230 µM.
The same measure, in the same setting: next, `CN(C)CCn1cnc2ccccc2c1=O`: 440 µM; `c1ccc2c(NCCN3CCCCC3)ncnc2c1`: 191 µM; `O=c1ccncn1CCCN1CCCCC1`: 1120 µM.
On to `Cn1c(=O)c2nc[nH]c2n(C)c1=O` [THEOPHYLLINE], for which, in series [1], the EC50 came out at 2090 µM.
Still for that read-out and setting: as for `CN1CCCC1CCNc1ncnc2ccccc12` (centres undefined), the figure is 173 µM.
